US20150258202A1, “ANTHOCYANIDIN COMPLEX FOR THE TREATMENT OF MULTIPLE MYELOMA” (priority 2012, published 2015)

What was measured:
[1] = Solubility of delphinidin chloride in aqueous cyclodextrin solutions (complexing); assay type: physicochemical; details: pure water, cyclodextrin concentration 0; stirred 30° C. 20 h in the dark, filtered 0.22 μm
Description: A reversed-phase HPLC method was used to determine the delphinidin chloride content in the delphinidin-containing compositions.
In this example, the complexing of delphinidin by various cyclodextrins and the solubility of the complex in aqueous solution are investigated.
Neutral aqueous solutions were prepared comprising 10% by weight of the respective cyclodextrin.
Glass flasks were filled with 5 ml each of aqueous cyclodextrin solution and pure water. An excess of delphinidin chloride was then added.
The suspensions were stirred at 30° C. for 20 h in the dark. The suspension was then filtered through a membrane filter of 0.22 μm pore size.

[2] = Stability trials in aqueous solution (0.9% NaCl, 37° C., delphinidin content by HPLC); assay type: physicochemical; details: 0.9% NaCl solution, dark
Description: To determine the delphinidin chloride content in the delphinidin-containing solutions, a reversed-phase HPLC method was used similar to the one already described above. The following reagents were used in this case:
The solutions were prepared at room temperature and subsequently stored in the dark at 37° C. in closed vials.
The delphinidin content was determined after 1, 2, 3 and 4 h. The table below gives the content determined as a percentage of the starting concentration stated above.
The determination of the delphinidin content in the samples was calculated with the aid of the Agilent ChemStation software using the calibration with the external standard described.

[3] = system: mouse myeloma cell line MOPC-315; test: FACS analysis of dead cells stained with propidium iodide; assay type: cell-based; details: summary of BLI measurement and FACS analysis
Text: 1. Test Line and Experimental Setup • In the in vitro experiments, the effect of the delphinidin+sulfobutyl ether β-cyclodextrin complex (delphinidin+SBEBCD below) and delphinidin on the mouse myeloma cell line MOPC-315 (ATTC catalog no. TIB-23) was investigated by BLI (=bioluminescence imaging) measurement and FACS (fluorescence activated cell sorting) analysis described below. The methods used (BLI measurement and FACS analysis) are known to those skilled in the art from patent and technical literature, for example, from the FACS-based patent DE 1815352 C1.

Compound: Oc1cc(O)c2cc(O)c(-c3cc(O)c(O)c(O)c3)[o+]c2c1.[Cl-] [Delphinidin chloride]
- Delphinidin chloride (solubility achievable) [1]: 70 µg/mL
- Delphinidin content as a percentage of the starting concentration ([2]; 0 h): 100%
- Delphinidin content as a percentage of the starting concentration ([2]; 1 h): 8.3%
- Delphinidin content as a percentage of the starting concentration ([2]; 2 h): 6.5%
- Delphinidin content as a percentage of the starting concentration ([2]; 3 h): 5.6%
- Delphinidin content as a percentage of the starting concentration ([2]; 4 h): 5.1%
- Killing of myeloma cells in vitro [3]: kill human myeloma cells in vitro
- Dose dependence of cell killing ([3]; higher doses): virtually all cells are killed at higher doses
